Results from patent publication US20240252651A1, “METHOD OF DELIVERING NUCLEIC ACIDS INTO CELLS” (GUANGZHOU LIDE BIOMEDICINE TECHNOLOGY CO., LTD., priority 2021, published 2024).
“Also recorded” adds a separate entry of the source.

Experiments:
DC 2.4 cells = test: Transfection of eGFP-mRNA in DC 2.4 cells (FCM and LSCM); format: cell-based, mouse; details: mRNA 0.2 μg/well, material 0.25 to 2 μg/well (dosages per FIG. 7), 24 h, FIG. 7-9
Procedure: In this experiment, with eGFP-mRNA as model mRNA, an mRNA transfection efficiency of a cationic lipid analog material in DC 2.4 cells was detected. A specific operation method was as follows:
DC 2.4 cells were inoculated in a 48-well plate and cultured in an incubator for 12 h; each of different cationic lipid analog materials (0.25 μg/well to 2 μg/well) was mixed with cGFP-expressing mRNA (0.2 μg/well) in 20 μL of a sodium acetate buffer (25 mM, pH 5.2), and resulting mixtures each were allowed to stand for 10 min and then diluted with 230 μL of a Opti-MEM medium to obtain mRNA-loaded complex particle solutions; a medium for the […] were washed once with PBS, and the complex particle solutions were added; and the cells were cultured for 24 h, an mRNA transfection efficiency in cells was observed by FCM and LSCM. A commercial gene transfection reagent Lipofectamine 2000 was adopted as a positive control.

Hela cells [1] = test: Transfection of GFP-expressing plasmid DNA in Hela cells (flow cytometer); format: cell-based, human; details: plasmid DNA 0.5 μg/well, material 0.25 to 8 μg/well (dosages per FIG. 4), 24 h
Procedure: In this experiment, with GFP-expressing plasmid DNA as a reporter gene, a gene transfection efficiency of a cationic lipid analog material in Hela cells was detected. A specific method was as follows:
Hela cells were inoculated in a 24-well plate and cultured in an incubator for 12 h; each of different cationic lipid analog materials (0.25 μg/well to 8 μg/well) was mixed with GFP-expressing plasmid DNA (0.5 μg/well) in 40 μL of a sodium acetate buffer (25 mM, pH 5.2), and resulting mixtures each were allowed to stand for 10 min and then diluted with 460 μL of an Opti-MEM medium to obtain plasmid DNA-loaded cationic lipid analog complex particle solutions; a medium for the Hela cells in the plate was removed, then the HeLa cells were washed once with PBS, and the complex particle solutions were added; and the cells were cultured for 24 h, and then a plasmid DNA transfection efficiency in cells was analyzed by a flow cytometer. A commercial gene transfection reagent Lipofectamine 2000 was adopted as a positive control.

Hela cells [2] = test: Transfection of luciferase-expressing plasmid DNA in HeLa cells (luciferase expression); format: cell-based, human; details: plasmid DNA 0.5 μg, 24 h, luciferase expression level, FIG. 5
Procedure: In this example, with luciferase-expressing plasmid DNA as a reporter gene, a gene transfection efficiency of a cationic lipid analog material in HeLa cells was detected. A specific operation method was as follows: Hela cells were inoculated in a 96-well plate and cultured in an incubator for 12 h; each of different cationic lipid analog materials was mixed with luciferase-expressing plasmid DNA (0.5 μg) in 40 μL of a sodium acetate buffer (25 mM, pH 5.2), and resulting mixtures each were allowed to stand for 10 min and then diluted with 460 μL of an Opti-MEM medium to obtain plasmid DNA-loaded cationic lipid analog complex particle solutions; a medium for the Hela cells in the plate was removed, then the Hela cells were washed once with PBS, and the complex particle solutions were added in a volume of 125 μL; the cells were cultured for 24 h, then a resulting culture supernatant was discarded, and the cells were fully lysed; and a substrate was added at 50 μl/well, and an expression level of luciferase was detected by a multi-mode microplate reader.

Hela cells [3] = test: Cytotoxicity by MTT experiment in Hela cells; format: cell-based, human; details: material 1 μg/ml, 4 h exposure then 20 h culture, FIG. 11
Procedure: In this experiment, I2R2C16A1, I2R2C17A1, I2R2C18A1, I2R2C19A1, and I2R2C20A1 with high transfection efficiencies were selected as representative cationic lipid analog materials, and the toxicity of cationic lipid analogs for Hela cells was detected by an MTT experiment. A specific experimental method was as follows: HeLa cells were inoculated in a 96-well plate and cultured in an incubator for 12 h, then a medium was removed, and a cationic lipid analog material was added at 1 μg/ml; the cells were cultured for 4 h, then the material was washed away and replaced with DMEM; and the cells were cultured for 20 h, and finally cell viability was detected by MTT.

A549 cells (A549-Luc) = test: siRNA transfection, luciferase gene silencing in A549-Luc cells; format: cell-based, human; details: final siRNA 100 nM, material 0.5 to 3 μg/well, 48 h, FIG. 10
Procedure: In this experiment, with I2R2C18-1A1, I2R3C18-1A1, I2R2C18-2A1, and I2R3C18-2A1 as representative cationic lipid analog materials, siRNA transfection and delivery effects of the cationic lipid analog materials were detected in A549 cells (A549-Luc). A specific operation method was as follows:
Luciferase-expressing A549 cells (A549-Luc) were inoculated in a 96-well plate and cultured in an incubator for 12 h; each of different materials (0.5 μg/well to 3 μg/well) was mixed with siRNA in 40 μL of a sodium acetate buffer (25 mM, pH 5.2), and resulting mixtures each were allowed to stand for 10 min and then diluted with 460 μL of an Opti-MEM medium to obtain siRNA-loaded complex particle solutions (final siRNA concentration was 100 nM); a medium for the A549-Luc cells in the plate was removed, then the A549-Luc cells were washed once with PBS, and the complex particle solutions each were added in a volume of 125 μL; the cells were cultured for 48 h, then a resulting culture supernatant was discarded, and the cells were fully lysed; and a substrate was added at 50 μl/well, and an expression level of luciferase was detected by a multi-mode microplate reader.

SMILES	mRNA transfection efficiency (eGFP-mRNA), compared with Lipofectamine 2000 (DC 2.4 cells)	transfection efficiency of GFP-expressing plasmid DNA, compared with commercial transfection reagent Lipofectamine 2000 (Hela cells [1])	transfection efficiency of luciferase-expressing plasmid DNA, compared with Lipofectamine 2000 (Hela cells [2])	cytotoxicity (cell viability by MTT) (Hela cells [3])	gene silencing efficiency as a function of material dosage (A549 cells (A549-Luc))	siRNA transfection, silencing of the luciferase reporter gene (A549 cells (A549-Luc))
CCCCCCCC/C=C\CCCCCCCC(=O)N(CCN(C)C)C(C(=O)NCCOCCOCCNC(=O)C(C(C)C)N(CCN(C)C)C(=O)CCCCCCC/C=C\CCCCCCCC)C(C)C (stereo not shown) [I2R1C18-1A1]	high transfection efficiency; also recorded: equivalent to or higher than	reaches or is higher than; also recorded: equivalent to or higher than	equivalent to or higher than	–	–	–
CCCCCCCCCCCCCCCC(=O)N(CCCN(C)C)C(C(=O)NCCOCCOCCNC(=O)C(C(C)C)N(CCCN(C)C)C(=O)CCCCCCCCCCCCCCC)C(C)C (stereo not shown) [I2R2C16A1]	high transfection efficiency; also recorded: equivalent to or higher than	reaches or is higher than; also recorded: equivalent to or higher than	equivalent to or higher than	low cytotoxicity	–	–
CCCCCCCC/C=C\CCCCCCCC(=O)N(CCCN(C)C)C(C(=O)NCCOCCOCCNC(=O)C(C(C)C)N(CCCN(C)C)C(=O)CCCCCCC/C=C\CCCCCCCC)C(C)C (stereo not shown) [I2R2C18-1A1]	high transfection efficiency; also recorded: equivalent to or higher than	reaches or is higher than; also recorded: equivalent to or higher than	equivalent to or higher than	–	increases with the increase of a dosage	efficient gene silencing; also recorded: can transfect siRNA into cells to specifically silence the expression of the luciferase reporter gene
CCCCC/C=C\C/C=C\CCCCCCCC(=O)N(CCCN(C)C)C(C(=O)NCCOCCOCCNC(=O)C(C(C)C)N(CCCN(C)C)C(=O)CCCCCCC/C=C\C/C=C\CCCCC)C(C)C (stereo not shown) [I2R2C18-2A1]	high transfection efficiency; also recorded: equivalent to or higher than	reaches or is higher than; also recorded: equivalent to or higher than	equivalent to or higher than	–	increases with the increase of a dosage	efficient gene silencing; also recorded: can transfect siRNA into cells to specifically silence the expression of the luciferase reporter gene
CCCCCCCCCCCCCCCCCC(=O)N(CCCN(C)C)C(C(=O)NCCOCCOCCNC(=O)C(C(C)C)N(CCCN(C)C)C(=O)CCCCCCCCCCCCCCCCC)C(C)C (stereo not shown) [I2R2C18A1]	high transfection efficiency; also recorded: equivalent to or higher than	–	–	low cytotoxicity	–	–
CCCCCCCCCCCCCCCCCCCC(=O)N(CCCN(C)C)C(C(=O)NCCOCCOCCNC(=O)C(C(C)C)N(CCCN(C)C)C(=O)CCCCCCCCCCCCCCCCCCC)C(C)C (stereo not shown) [I2R2C20A1]	–	–	–	low cytotoxicity	–	–
CCCCCCCCCCCCCCCC(=O)N(CCCN(CC)CC)C(C(=O)NCCOCCOCCNC(=O)C(C(C)C)N(CCCN(CC)CC)C(=O)CCCCCCCCCCCCCCC)C(C)C (stereo not shown) [I2R3C16A1]	high transfection efficiency; also recorded: equivalent to or higher than	reaches or is higher than; also recorded: equivalent to or higher than	equivalent to or higher than	–	–	–
CCCCC/C=C\C/C=C\CCCCCCCC(=O)N(CCCN(CC)CC)C(C(=O)NCCOCCOCCNC(=O)C(C(C)C)N(CCCN(CC)CC)C(=O)CCCCCCC/C=C\C/C=C\CCCCC)C(C)C (stereo not shown) [I2R3C18-2A1]	high transfection efficiency; also recorded: equivalent to or higher than	reaches or is higher than; also recorded: equivalent to or higher than	equivalent to or higher than	–	increases with the increase of a dosage	efficient gene silencing; also recorded: can transfect siRNA into cells to specifically silence the expression of the luciferase reporter gene
CCCCCCCCCCCCCCCCCC(=O)N(CCCN(CC)CC)C(C(=O)NCCOCCOCCNC(=O)C(C(C)C)N(CCCN(CC)CC)C(=O)CCCCCCCCCCCCCCCCC)C(C)C (stereo not shown) [I2R3C18A1]	high transfection efficiency; also recorded: equivalent to or higher than	reaches or is higher than; also recorded: equivalent to or higher than	equivalent to or higher than	–	–	–
CCCCC/C=C\C/C=C\CCCCCCCC(=O)N(CCC1CCCN1C)C(C(=O)NCCOCCOCCNC(=O)C(C(C)C)N(CCC1CCCN1C)C(=O)CCCCCCC/C=C\C/C=C\CCCCC)C(C)C (stereo not shown) [I2R11C18-2A1]	high transfection efficiency; also recorded: equivalent to or higher than	reaches or is higher than; also recorded: equivalent to or higher than	equivalent to or higher than	–	–	–
